No end group written: not given here.
Assays:
[1] = system: fetal rat osteoblast-like cells; assay: Osteoblast proliferation assay, cell counts; assay type: cell-based; conditions: for cell number relative to control osteoblasts: primary cultures of osteoblasts, final concentration of 1 nm
Procedure: (§1) Osteoblasts were isolated by collagenase digestion from 20-day fetal rat calvariae. The calvariae were then treated twice with phosphate buffered saline (PBS; Gibco, Grand Island, N.Y.) containing 3 Mm […] (EDTA; Sigma Chemical Co., St. Louis, Mo.) for 15 minutes at 37° C. in a shaking water bath. After washing once in PBS, 3 ml of 1 mg/ml collagenase (Sigma Chemical Co.) was added to the calvariae for 10 minutes at 37° C. After discarding the supernatant, the calvariae were treated twice with 2 mg/ml collagenase (30 mins, 37° C.). The supernatants were then centrifuged and the cells washed in Dulbecco's Modified Eagle's Medium (DMEM; Gibco Labs, Grand Island, N.Y.) with 10% fetal calf serum (FCS), suspended in further DMEM/10% FCS, and placed in […] flasks. The cells were incubated under 5% CO2 and 95% air at 37° C.
(§2) Confluence was reached by 5-6 days, at which time the cells were subcultured. After trypsinization using trypsin-EDTA (0.05%/0.53 […]; Gibco Labs, Grand Island, N.Y.), the cells were rinsed in Minimal Essential Medium (MEM; Gibco Labs) with 10% FCS and resuspended in MEM with 5% FCS, then seeded (10^5 cells/ml) in 24-well plates (0.5 ml cell suspension per well, i.e., 5×10^4 cells/well)
(§3) Cell proliferation studies (i.e., cell counts and thymidine incorporation) were performed both in actively-growing and growth-arrested cell populations. To produce actively-growing cells, subconfluent populations (24 hrs after subculturing) were changed to fresh MEM which contained 1% FCS and the test compounds. To produce growth-arrested cells, subconfluent populations were changed to serum-free medium with 0.1% bovine serum albumin plus the test compounds.
The effect of adrenomedullin on proliferation of fetal rat osteoblast-like cells was first assessed by the measurement of cell numbers. Cell counts were analyzed at 6, 24, and 48 hours after addition of the test compound or vehicle. The cell numbers were determined after removing cells from the wells by exposure to trypsin/EDTA (0.05%/0.53 Mm) for 5 minutes at 37° C. Counting was performed in a hemocytometer chamber. Results were expressed per well. […] This stimulation was maintained for at least 48 hours.

[2] = system: fetal rat osteoblast-like cells; assay: DNA synthesis, [3H]-thymidine incorporation into osteoblasts; assay type: cell-based; conditions: for thymidine incorporation: primary cultures of osteoblasts, 1 nm; for [3H]-thymidine incorporation: 10^−10M, 24 hours
Procedure: as §1, §2, §3
The effect of adrenomedullin on DNA synthesis in osteoblasts was then assessed by the measurement of [^3H]-thymidine incorporation into isolated fetal rat osteoblast-like cells. [^3H]-thymidine incorporation into actively-growing and growth-arrested cells was assessed by pulsing the cells with [^3H]-thymidine (1 μCi/ml) (Amersham, Arlington Heights, Ill.) two hours before the end of the experimental incubation. The experiment was terminated at 6, 24, or 48 hours by washing the cells in MEM with cold thymidine followed by 10% trichloroacetic acid. The precipitate was washed twice with ethanol:ether (3:1), and the wells were desiccated at room temperature. The residue was redissolved in 0.5 M KOH at 85° C. for 30 mins, neutralized with 1 M Hcl, and an aliquot counted for radioactivity. Results were expressed as cpm per well.

neonatal mouse calvariae [3] = assay: Bone organ culture, bone resorption (45Ca release); assay type: cell-based; conditions: 48 hours, concentrations of 10−7 M to 10^−10 M
Procedure: (§4) Bone resorption studies were carried out in neonatal mouse calvariae as previously described (Reid, et al., Endocrinology 126:1416-1420 (1990)). Mice were injected subcutaneously with 5 μCi ^45Ca (Amersham) at 2 days of age, and hemi-calvariae were dissected out 4 days later. Hemi-calvariae were pre-incubated for 24 hours in medium 199 (Gibco BRL, Grand Island, N.Y.) with 0.1% bovine serum albumin, then changed to fresh medium containing adrenomedullin or control vehicle. Incubation was continued for a further 48 hours. In the last 4 hours of incubation [^3H]-thymidine was incorporated into the organ cultures as described previously (Lowe, et al., Calif. Tissue Int. 49-394-397 (1991)). There were 5-7 calvariae in each group.

neonatal mouse calvariae [4] = assay: Bone organ culture, [3H]-thymidine incorporation; assay type: cell-based; conditions: 48 hours, 10−7 M to 10^−10 M, same experiments
Procedure: as §4

adult mouse calvariae = assay: Local effects on bone histology in vivo, histomorphometry of hemicalvariae
Procedure: The local effects of adrenomedullin on bone histology in vivo were assessed in adult mice using a previously described model (Cornish et al., Endocrinology 132:1359-1366, 1993). Sexually mature male ARC Swiss Webster mice aged between 40 and 50 days and weighing […] were given injections (25 μl) over the periosteum of the right hemicalvariae for 5 consecutive days. […] The animals were maintained on a low calcium diet (0.1%) from 5 days prior to the first injection. […] These doses were chosen based on experience with other bone-active peptides in this model. Animals in the control group (n=16) were injected with vehicle (water) only. All animals were sacrificed 1 week following the last injection. The study had the approval of the local institutional review board.
The calvariae were dissected free of soft tissue, and gross morphology was assessed by examination of the intact calvariae under a dissection microscope. Bone tissue was fixed in 10% phosphate-buffered formalin, dehydrated in a graded series of ethanol solutions and embedded undecalcified in methyl methacrylate resin. Sections (4 μm thick) were cut on a Leitz rotary microtome (Leica Instruments, Nussloch, Germany) using a tungsten-carbide knife, then mounted on gelatin-coated slides and air-dried. The sections were stained with a Goldner tri-chrome stain and examined using an Olympus BX 50 microscope (Olympus Optical Co Ltd, Tokyo, Japan) which was attached to an Osteomeasure Image Analyzer (Osteometrics Inc., Atlanta, Ga.). Histomorphometric analyzes were made of three adjacent fields (using a 20× objective) in each hemicalvaria.
The parameters assessed are as defined by the American Society for Bone and Mineral Research (Parfitt et al. J. Bone Miner. Res. 2:595-610, (1987)), and are expressed per mm of calvarial length. Osteoblasts were defined as cells immediately adjacent to osteoid. Osteoclast numbers included only multinucleated cells. The various surface estimates were based on measurements of both periosteal and intramembranous surfaces: those eroded by osteoclasts (eroded perimeter), those immediately adjacent to osteoclasts (osteoclast perimeter), and those immediately adjacent to osteoblasts (osteoblast perimeter). The precision of these histomorphometric measurements in these studies (expressed as coefficients of variation of paired. measurements) are as follows: mineralized bone area 1.3%, osteoid area 6.9%, osteoblast perimeter 6.8%, osteoblast number 1.7%, eroded perimeter 6.7%, osteoclast perimeter 7.9%, osteoclast number <1.0%, and calvarial length 0.2%. All measurements were made by one operator who was blinded to the treatment group of each bone.
In the in vivo experiment, the primary end-point for each histomorphometric index was the determination of whether it was different in the injected right hemicalvaria from the contralateral, uninjected bone of the same animal. The absolute values of each histomorphometric index are presented for the injected and uninjected hemicalvariae by treatment group in Tables 1-3. […] Tables 1-3. Effects of Adrenomedullin on Histomorphometric Indices in Adult Mouse Calvariae in vivo*

[5] = Injected hemicalvaria, Adrenomedullin 4 × 10^−10 mol, mean, per mm of calvarial length
[6] = Uninjected hemicalvaria, Adrenomedullin 4 × 10^−10 mol, mean, per mm of calvarial length
[7] = in the presence of adrenomedullin

Q: How did the “cell number relative to control osteoblasts” value [1] turn out when “ADM(28-40) (HQIYQFTDKDKDN; listed as Homo sapiens) [adrenomedullin fragment, residues 28-40]” was run?
A: statistically significant increase

Q: And the thymidine incorporation [2]?
A: increased

Q: “ADM(32-52) (QFTDKDKDNVAPRSKISPQGY; listed as Homo sapiens) [adrenomedullin fragment, residues 32-52]” was tested. Which “cell number relative to control osteoblasts” value [1] did it give?
A: statistically significant increase

Q: And the thymidine incorporation [2]?
A: increased

Q: What does the source list for adrenomedullin?
A: duration for which stimulation of cell number was maintained ([1]; 1% FCS, actively-growing cells): at least 48 hours; adrenomedullin concentration at which a significant increase in cell number was observed ([1]; 24 hours, 1% FCS, actively-growing cells): ≥ 10^−12 M; increase in actively-growing osteoblasts (cell number) ([1]; 24 hours, medium containing 1% FCS, actively-growing cells): dose-dependent increase; 45Ca release from prelabeled calvariae (neonatal mouse calvariae [3]): no significant change; [3H]-thymidine incorporation ([2]; actively-growing cells): significantly stimulated; [3H]-thymidine incorporation ([2]; growth-arrested cells): significantly stimulated; [3H]-thymidine incorporation (neonatal mouse calvariae [4]): significantly increased; Bone Area (adult mouse calvariae; [5]): 0.128; Eroded Pm (adult mouse calvariae; [5]): 0.67; Number of Obs (adult mouse calvariae; [5]): 105; Number of Ocs (adult mouse calvariae; [5]): 5.0; Ob Perimeter (adult mouse calvariae; [5]): 0.33; Oc Pm (adult mouse calvariae; [5]): 0.15; Osteoid Area (adult mouse calvariae; [5]): 0.0032; Periosteal Area (adult mouse calvariae; [5]): 0.012; Periosteal Area (adult mouse calvariae; P=0.54): not changed; Bone Area (adult mouse calvariae; [6]): 0.114; Eroded Pm (adult mouse calvariae; [6]): 0.67; Number of Obs (adult mouse calvariae; [6]): 61; Number of Ocs (adult mouse calvariae; [6]): 4.4; Ob Perimeter (adult mouse calvariae; [6]): 0.56; Oc Pm (adult mouse calvariae; [6]): 0.12; Osteoid Area (adult mouse calvariae; [6]): 0.0012; Periosteal Area (adult mouse calvariae; [6]): 0.011; indices of osteoblast activity, ratio of injected to uninjected halves of each calvaria (adult mouse calvariae; either dose of adrenomedullin, 5 daily local injections): two- to three-fold increases; increase of mineralized bone area (adult mouse calvariae; higher dose of adrenomedullin): 13.6%; eroded perimeter, upward trend, ratio of injected to uninjected (adult mouse calvariae; [7]): significant; resorption indices, ratio of injected to uninjected (adult mouse calvariae; [7]): slight upward trends

Q: Which results are given for “adrenomedullin(27-52) (AHQIYQFTDKDKDNVAPRSKISPQGY-NH2; listed as Homo sapiens) [fragment of adrenomedullin, residues 27-52, carboxyl terminal amidated]”?
A: cell number relative to control osteoblasts [1]: statistically significant increase; thymidine incorporation [2]: increased

Source: patent US6440421B1, “Treatment of bone disorders with adrenomedullin or adrenomedullin agonists” (Auchkland Uniservices Limited, priority 1996, dated 2002)
